According to PubChem BioAssay AID588523 (Johns Hopkins Ion Channel Center, 2011):
The source made the active and inactive calls.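 How the source made its calls: active means IC50 below 100 µM from duplicate concentration-response curves; inactive means IC50 above 100 µM.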

Biological target: Regulator of G-protein signaling 4 (Rattus norvegicus) (UniProt P49799)
Assay: RGS4 binding to activated Galpha-o blockers – biochemical, rat RGS4, AlF4-dependent, flow cytometry bead assay, dose response (AID 588523)
Conditions: FCPIA, bead fluorescence

Sequence of Regulator of G-protein signaling 4 (Rattus norvegicus) (P49799 whole entry, looked up): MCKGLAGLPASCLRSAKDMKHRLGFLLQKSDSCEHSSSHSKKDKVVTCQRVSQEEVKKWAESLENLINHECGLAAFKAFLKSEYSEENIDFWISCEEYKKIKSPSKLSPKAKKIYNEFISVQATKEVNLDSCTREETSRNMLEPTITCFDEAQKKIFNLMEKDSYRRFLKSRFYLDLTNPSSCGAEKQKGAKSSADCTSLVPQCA

In the case of `Cc1ccc(C(C2C(=O)CC(C)(C)CC2=O)C2C(=O)CC(C)(C)CC2=O)s1`, the IC50 is reported as 86.8 µM.
In the case of `CN(C)c1oc(-c2ccccc2[N+](=O)[O-])nc1C#N`, the IC50 is reported as > 110 µM (inactive).
For `O=C(O)c1ccc(/C=C/C(=O)c2ccc3c(c2)OCCCO3)cc1`, the IC50 was > 110 µM (inactive).
For `CC(C)(C)c1ccc(Cn2nnc3c(=O)[nH]c(C4CCN(C(=O)Cc5cccs5)CC4)nc32)cc1`, the IC50 was > 110 µM (inactive).
`Cc1csc(NC(=O)COCC(=O)O)c1-c1nc2ccccc2s1` was tested, and the IC50 was > 110 µM (inactive).
For `COc1cccc(/C=C/C(=O)c2c(O)cc(C)oc2=O)c1O`, the IC50 was > 110 µM (inactive).
`CCOC(=O)/C=C/C(=O)OCC(=O)N1CCN(C(=O)c2ccco2)CC1` was tested, and the IC50 was 73.9 µM.
`O=C(/C=C/c1ccncc1)c1ccc2c(c1)OCCO2` was tested, and the IC50 was 82.2 µM.
Work on `COc1ccc(NC(=O)/C(Cl)=C(/Cl)S(=O)Cc2ccccc2)cn1` (stereo not drawn) yielded an IC50 of 1.7 µM.
With `Cc1ccc(C(C2=C(O)CC(C)(C)CC2=O)C2C(=O)CC(C)(C)CC2=O)o1` (stereo not drawn) the IC50 was > 110 µM (inactive).
For `CCOC(=O)C1=C(O)/C(=C\c2cccc(OC)c2)N=C1C`, the IC50 was > 110 µM (inactive).
In the case of `O=C(O)c1ccc(/C=C2\COc3ccccc3C2=O)cc1`, the IC50 is reported as > 110 µM (inactive).
In the case of `Cc1cccc(N2C(=O)/C(=C/c3ccc(C(=O)O)cc3)c3ccccc3C2=O)c1`, the IC50 is reported as > 110 µM (inactive).
In the case of `COC(=O)CSc1[nH]c2cc(C)ccc2c1[N+](=O)[O-]`, the IC50 is reported as > 110 µM (inactive).
In the case of `COc1cc2c(cc1O)C(SC)=NC(C)(C)C2`, the IC50 is reported as > 110 µM (inactive).
For `Cc1c(NC(=O)c2coc(=O)c(Br)c2)c(=O)n(-c2ccccc2)n1C`, the IC50 was > 110 µM (inactive).
`Cc1ccccc1OCc1nnc(SCC(=O)Nc2ccc3c(c2)oc2ccccc23)n1C` was tested, and the IC50 was > 110 µM (inactive).
With `O=C1N=c2ccccc2=C1c1c(O)n(-c2cccc(F)c2)[nH]c1=O` the IC50 was 10.3 µM.
In the case of `CCOCCCNC(=O)/C(C#N)=C\c1ccc([N+](=O)[O-])o1`, the IC50 is reported as > 110 µM (inactive).
In the case of `CN(C)C(=O)COc1ccc(C(=O)/C=C/c2cccnc2)cc1`, the IC50 is reported as > 110 µM (inactive).
In the case of `O=C(O)c1ccc2c(c1)C(=O)N(c1cccc(C(=O)/C=C/c3ccccc3)c1)C2=O`, the IC50 is reported as > 110 µM (inactive).
For `CC(C)OP(=O)(OC(C)C)/C(C=O)=N\Nc1ccc([N+](=O)[O-])cc1`, the IC50 was > 110 µM (inactive).
Work on `O=C1/C(=C/c2ccncc2)CCC/C1=C\c1ccncc1` yielded an IC50 of 13.6 µM.
Molecule `CCCN1CCc2cc(O)cc3c2[C@H]1Cc1ccc(O)c(O)c1-3` has an IC50 of 9.4 µM.
With `O=C1/C(=C\c2ccc(Cl)c(Cl)c2)N2CCC1CC2` the IC50 was > 110 µM (inactive).
With `Cc1ccc(CNC(=O)c2cn(C3CCCCC3)c(=O)c3c2c2ccccc2n3C)o1` the IC50 was > 110 µM (inactive).
`Oc1c(Cl)cc(Cl)c2c1NCCC2` was tested, and the IC50 was > 110 µM (inactive).
`CN1C(=O)/C(=C\c2ccc(Br)s2)C(=O)NC1=S` showed an IC50 of 12.5 µM.
In the case of `O=C1NC(=S)N(c2ccccc2F)C(=O)/C1=C\c1cccs1`, the IC50 is reported as 21.3 µM.
For `Cc1ccc(/C=C/C(=O)N2CC(C)CC(C)C2)o1` (stereo not drawn), the IC50 was 74.9 µM.
With `Cc1nc2c(=O)n(C)c(=O)n(C)c2nc1Cl` the IC50 was 78.7 µM.
With `O=C1C=C(NC2=CC3OC(c4ccccc4)OCC3OC2=O)CCC1` (stereo not drawn) the IC50 was > 110 µM (inactive).
In the case of `O=[N+]([O-])c1ccc(O)c(/C=N/NC(=S)Nc2ccc(Cl)cc2Cl)c1`, the IC50 is reported as > 110 µM (inactive).
`CN(C)c1ccc(C(C[N+](=O)[O-])c2c(N)n(C)c(=O)n(C)c2=O)c(F)c1C#N` (stereo not drawn) was tested, and the IC50 was > 110 µM (inactive).
For `COC(=O)CSc1[nH]c2ccccc2c1[N+](=O)[O-]`, the IC50 was > 110 µM (inactive).
For `O=C/C=C/c1c(-c2ccccc2)cc2oc3ccccc3cc1-2`, the IC50 was > 110 µM (inactive).
With `O=C(/C=C/c1ccc([N+](=O)[O-])cc1)c1ccco1` the IC50 was > 110 µM (inactive).
For `O=C(CCNc1ccc(F)cc1)c1ccco1`, the IC50 was > 110 µM (inactive).
For `Cc1cc(-c2n[nH]c(=S)n2/N=C/C(Br)=C/c2ccccc2)n[nH]1`, the IC50 was 26.1 µM.
In the case of `CN1C/C(=C/c2ccncc2)C(=O)/C(=C/c2ccncc2)C1`, the IC50 is reported as 5.4 µM.
For `CCOCCCNC(=O)/C(C#N)=C\c1ccc(Cl)c([N+](=O)[O-])c1`, the IC50 was > 110 µM (inactive).
Molecule `CC1=NN(c2ccc(C(=O)O)cc2)C(=O)/C1=C\c1ccc(OC(=O)c2cccs2)cc1` has an IC50 of 44 µM.
Work on `COc1ccc(OC)c(N2C(=O)NC(=O)/C(=C/c3ccc([N+](=O)[O-])s3)C2=O)c1` yielded an IC50 of 11.9 µM.
For `N#C/C(=C/c1ccc(Cl)c([N+](=O)[O-])c1)c1ccccn1`, the IC50 was > 110 µM (inactive).
In the case of `Cn1c(OCc2ccco2)nc2c1c(=O)n(Cc1ccc(Cl)c(Cl)c1)c(=O)n2C`, the IC50 is reported as > 110 µM (inactive).
`Cc1cc2nc(CS)[nH]c2cc1C` gave an IC50 of 23.6 µM.
For `CN1C(=O)S/C(=C\c2ccccc2OCc2ccc(C(=O)O)cc2)C1=O`, the IC50 was > 110 µM (inactive).
`O=C1/C(=C\c2ccc(Cl)cc2Cl)N2CCC1CC2` was tested, and the IC50 was > 110 µM (inactive).
With `NC(=O)N/N=C/c1c(Sc2nnnn2-c2ccccc2)nc2ccccn2c1=O` the IC50 was > 110 µM (inactive).
With `COc1ccc2cc(C3C(C#N)=C(N)OC(C)=C3C(C)=O)c(Cl)nc2c1` (stereo not drawn) the IC50 was > 110 µM (inactive).
For `N[C@@H](Cc1cc(Br)c(O)c(Br)c1)C(=O)O`, the IC50 was > 110 µM (inactive).
In the case of `O=C(N/N=C/c1cc([N+](=O)[O-])ccc1O)NC12CC3CC(CC(C3)C1)C2`, the IC50 is reported as > 110 µM (inactive).
For `CC1=NOC(=O)/C1=C/c1ccc(O)cc1`, the IC50 was > 110 µM (inactive).
In the case of `COc1ccc(NC(=O)/C(C#N)=C\c2ccc(Sc3nncn3C)c([N+](=O)[O-])c2)cc1`, the IC50 is reported as > 110 µM (inactive).
For `COc1ccc(-c2csc(NC3OC(=O)c4c3ccc(OC)c4OC)n2)cc1OC` (stereo not drawn), the IC50 was > 110 µM (inactive).
For `COc1ccc(C(C[N+](=O)[O-])c2c(-c3ccccc3)cc3ccccn23)cc1OC` (stereo not drawn), the IC50 was > 110 µM (inactive).
`Cc1ccc(/C=C2\C(=O)NC(=S)N(c3ccc(F)cc3)C2=O)s1` showed an IC50 of 22.1 µM.
With `CN1CCc2cc(O)cc3c2[C@H]1Cc1ccc(O)c(O)c1-3` the IC50 was 7.5 µM.
